Consider two molecules from patent US20250145566A1, “PHENETHYLAMINE DERIVATIVES, COMPOSITIONS, AND METHODS OF USE” (Cybin IRL Limited, priority 2022, published 2025).

The target of one data set is Dopamine transporter (Homo sapiens, UniProt Q01959). Nature of the data set: Dopamine transporter uptake (h). It is filed as cell-based.
A further data set deals with T1, 5-HT2A (h) (Homo sapiens, UniProt P28223).
T1 construct: expressed in transfected cells; host or cells: HEK-293 cells
Nature of the data set: 5-HT2A (h) agonist effect, IP1 HTRF functional assay. Format: cell-based. The note with it: for agonist efficacy at 5-HT2A, in words: EMAX relative to 5-HT.

The target of the next data set is T2, 5-HT2B (h) (Homo sapiens, UniProt P41595).
T2 construct: expressed in transfected cells; host or cells: CHO cells
Nature of the data set: 5-HT2B (h) agonist effect, IP1 HTRF functional assay. The note with it: for agonist efficacy at 5-HT2B, in words: EMAX relative to 5-HT. It is filed as cell-based.

The next data set deals with T3, MAO-B (Homo sapiens, UniProt P27338).
T3 construct: purchased Corning 456284
T3 sequence (P27338 1-520): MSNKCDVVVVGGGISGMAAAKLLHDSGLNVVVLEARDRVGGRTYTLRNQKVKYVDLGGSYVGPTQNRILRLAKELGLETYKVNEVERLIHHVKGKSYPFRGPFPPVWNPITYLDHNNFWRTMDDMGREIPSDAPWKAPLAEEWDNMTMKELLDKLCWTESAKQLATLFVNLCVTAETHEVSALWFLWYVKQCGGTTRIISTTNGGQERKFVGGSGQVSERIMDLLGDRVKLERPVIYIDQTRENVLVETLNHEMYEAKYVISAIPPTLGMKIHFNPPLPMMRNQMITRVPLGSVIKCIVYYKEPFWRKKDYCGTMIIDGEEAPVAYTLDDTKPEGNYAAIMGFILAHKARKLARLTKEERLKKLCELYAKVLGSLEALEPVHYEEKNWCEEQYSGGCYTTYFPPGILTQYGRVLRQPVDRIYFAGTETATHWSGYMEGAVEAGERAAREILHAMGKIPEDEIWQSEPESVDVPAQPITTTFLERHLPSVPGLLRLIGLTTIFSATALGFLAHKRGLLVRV
Nature of the data set: human MAO-B in vitro metabolism. Format: in vitro ADME. Conditions: human MAO-B enzyme (Corning), test compound 1 μM, read-out: MAO-B t1/2. As for the experimental part:
In a different series of reactions using human MAO-A and MAO-B, a 10 mM stock solution of the test compound was prepared in DMSO. From this stock solution, an intermediate stock solution of 1 mM was prepared by diluting the compound in DMSO and from this intermediate stock solution, a working solution of 0.30 mM was prepared by diluting the compound in ACN:Water (50:50) as cocktail of 2 compounds (30 μL each compound in 40 μL diluent for 100 μL). Following this, a master mix of 0.1 M potassium phosphate buffer and test compound mixture i.e., the non-deuterated and the deuterated analog, were prepared to achieve final drug concentration of 1 μM (0.2% DMSO) for the required number of reactions. The aforementioned master mix was pre-incubated at 37° C. for 5 min. To this master mix, MAO-A (final protein conc. 0.1 mg/mL; Corning Cat #456283; Lot #1173003) or MAO-B (final protein conc. 0.1 mg/mL; Corning Cat #456284; Lot #0318001) was added to initiate the reaction. The samples were then incubated at 37° C. for the desired time points. At each time point (0, 5, 15, 30, 45, 60), 40 μL of the samples were withdrawn and reactions were stopped using 200 μL chilled ACN containing 0.1% formic acid and internal standard Carbamazepine (10 ng/mL). The samples were centrifuged, and the supernatant was analyzed by LC-MS/MS. The percent compound remaining at each time point was calculated with respect to that of the 0 min sample. The data were then analyzed to calculate half-life and intrinsic clearance (CLint). Blank samples were prepared using DMSO (without the test compound).

A further data set concerns the target T4, Serotonin transporter (Rattus norvegicus, UniProt P31652).
T4 construct: from tissue
Nature of the data set: Serotonin transporter uptake, rat brain synaptosomes. Format: biochemical. Conditions: for selectivity for blocking 5-HT reuptake relative to NE and DA, in words / selectivity for inhibiting SERT relative to DAT and NET: uptake inhibition.

A further data set addresses T5, 5-HT2C (h) (Homo sapiens, UniProt P28335).
T5 construct: expressed in transfected cells; host or cells: HEK-293 cells
T5 sequence (P28335 33-458): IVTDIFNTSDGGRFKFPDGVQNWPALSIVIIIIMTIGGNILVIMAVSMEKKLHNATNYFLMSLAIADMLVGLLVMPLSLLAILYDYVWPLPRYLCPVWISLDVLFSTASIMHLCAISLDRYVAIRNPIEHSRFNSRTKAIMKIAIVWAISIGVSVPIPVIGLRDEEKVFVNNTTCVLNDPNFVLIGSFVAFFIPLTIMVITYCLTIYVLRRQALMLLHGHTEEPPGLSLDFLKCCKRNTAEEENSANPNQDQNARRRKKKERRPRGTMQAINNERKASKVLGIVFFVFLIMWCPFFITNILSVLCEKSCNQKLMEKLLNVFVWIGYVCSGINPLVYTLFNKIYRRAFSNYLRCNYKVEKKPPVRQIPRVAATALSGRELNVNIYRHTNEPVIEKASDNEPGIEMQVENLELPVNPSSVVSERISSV
Nature of the data set: 5-HT2C (h) agonist effect, IP1 HTRF functional assay. Format: cell-based. Conditions: for agonist efficacy at 5-HT2C, in words: EMAX relative to 5-HT.

Entries after “also recorded” stand apart in the source; their conditions may differ.

Sequence of Dopamine transporter (Q01959 whole entry): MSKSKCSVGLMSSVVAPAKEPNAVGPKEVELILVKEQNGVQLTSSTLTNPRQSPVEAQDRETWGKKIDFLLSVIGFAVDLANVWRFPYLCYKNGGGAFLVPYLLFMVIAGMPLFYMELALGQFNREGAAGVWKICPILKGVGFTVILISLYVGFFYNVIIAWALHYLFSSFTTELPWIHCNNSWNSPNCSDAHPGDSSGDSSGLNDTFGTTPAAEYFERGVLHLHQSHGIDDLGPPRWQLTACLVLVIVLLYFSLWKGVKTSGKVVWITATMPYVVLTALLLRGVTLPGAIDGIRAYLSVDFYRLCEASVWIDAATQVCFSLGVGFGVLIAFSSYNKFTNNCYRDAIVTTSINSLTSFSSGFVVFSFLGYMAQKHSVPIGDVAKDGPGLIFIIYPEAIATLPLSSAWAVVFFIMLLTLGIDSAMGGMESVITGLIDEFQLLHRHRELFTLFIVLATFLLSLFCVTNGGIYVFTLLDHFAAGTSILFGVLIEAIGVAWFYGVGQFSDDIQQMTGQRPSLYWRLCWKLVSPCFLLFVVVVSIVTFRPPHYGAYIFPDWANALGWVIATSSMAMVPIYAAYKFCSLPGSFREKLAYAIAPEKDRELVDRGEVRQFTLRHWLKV
T4 sequence (P31652 whole entry): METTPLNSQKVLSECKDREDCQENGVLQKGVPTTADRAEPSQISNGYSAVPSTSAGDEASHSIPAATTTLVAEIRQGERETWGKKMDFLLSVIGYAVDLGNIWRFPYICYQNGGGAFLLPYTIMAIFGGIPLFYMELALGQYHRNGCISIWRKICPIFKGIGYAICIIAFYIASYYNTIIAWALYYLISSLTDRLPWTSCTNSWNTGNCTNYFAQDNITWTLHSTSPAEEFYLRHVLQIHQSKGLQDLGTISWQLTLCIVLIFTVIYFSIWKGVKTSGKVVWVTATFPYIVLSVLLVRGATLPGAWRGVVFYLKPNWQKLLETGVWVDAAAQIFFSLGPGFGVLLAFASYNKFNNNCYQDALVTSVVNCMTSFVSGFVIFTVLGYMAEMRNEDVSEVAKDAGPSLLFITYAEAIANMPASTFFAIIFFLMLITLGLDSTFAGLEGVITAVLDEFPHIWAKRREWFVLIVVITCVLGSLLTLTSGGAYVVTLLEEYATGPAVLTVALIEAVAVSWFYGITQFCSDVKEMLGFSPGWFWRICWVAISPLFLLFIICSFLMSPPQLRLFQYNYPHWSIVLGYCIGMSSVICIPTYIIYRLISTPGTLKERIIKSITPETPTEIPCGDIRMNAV
T2 sequence (P41595 whole entry): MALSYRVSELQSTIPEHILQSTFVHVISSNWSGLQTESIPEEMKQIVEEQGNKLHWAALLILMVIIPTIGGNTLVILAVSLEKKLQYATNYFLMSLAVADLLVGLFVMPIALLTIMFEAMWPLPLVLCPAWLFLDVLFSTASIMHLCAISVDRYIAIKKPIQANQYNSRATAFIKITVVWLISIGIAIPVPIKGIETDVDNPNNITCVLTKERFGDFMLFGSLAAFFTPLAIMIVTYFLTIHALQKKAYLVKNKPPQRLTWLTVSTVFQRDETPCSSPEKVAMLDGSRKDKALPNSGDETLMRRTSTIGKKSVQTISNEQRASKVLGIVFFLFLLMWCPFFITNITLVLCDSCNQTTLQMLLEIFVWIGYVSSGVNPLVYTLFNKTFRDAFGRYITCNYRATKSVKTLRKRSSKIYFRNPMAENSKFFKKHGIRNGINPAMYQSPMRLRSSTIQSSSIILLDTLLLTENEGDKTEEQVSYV
T1 sequence (P28223 whole entry): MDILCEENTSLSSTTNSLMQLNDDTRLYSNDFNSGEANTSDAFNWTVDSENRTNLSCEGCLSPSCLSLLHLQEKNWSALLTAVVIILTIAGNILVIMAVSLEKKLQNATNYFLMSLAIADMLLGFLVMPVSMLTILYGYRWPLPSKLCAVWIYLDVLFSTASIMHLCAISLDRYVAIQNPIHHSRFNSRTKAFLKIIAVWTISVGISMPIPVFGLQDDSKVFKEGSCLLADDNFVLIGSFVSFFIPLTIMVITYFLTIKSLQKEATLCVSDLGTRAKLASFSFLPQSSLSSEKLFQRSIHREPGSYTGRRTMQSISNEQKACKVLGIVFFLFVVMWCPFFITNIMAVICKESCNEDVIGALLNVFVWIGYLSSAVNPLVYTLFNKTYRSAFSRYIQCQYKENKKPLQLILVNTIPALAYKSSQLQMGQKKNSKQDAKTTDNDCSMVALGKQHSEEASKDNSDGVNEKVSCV

`CC(N)Cc1ccc2c(c1)OCS2` (stereo not shown) [II-16, 1-(benzo[d][1,3]oxathiol-6-yl)propan-2-amine]: the “efficacy for blocking DA uptake through DAT, in words” value on Dopamine transporter (tested at 1, 10, 100 μM) is “full efficacy”. For the same molecule, on 5-HT2A (h) (tested at 1, 3, 10, 100 μM), the “agonist efficacy at 5-HT2A, in words” value is “nearly full or full agonist; also recorded: full agonists”. For the same molecule, the “agonist efficacy at 5-HT2B, in words” value at 5-HT2B (h) (tested at 1, 3, 10, 100 μM) is reported as “nearly full or full agonist; also recorded: full agonists”. Besides, the half-life at 1 µM on MAO-B stood at 14.3 h. The “efficacy for blocking 5-HT uptake through SERT, in words” value at Serotonin transporter (tested at 1, 3, 10, 100 μM) was “full efficacy”. Also, on Serotonin transporter, the “selectivity for blocking 5-HT reuptake relative to NE and DA, in words” value was “selectivity (higher potency) for blocking 5-HT reuptake relative to NE and DA”; the “selectivity for inhibiting SERT relative to DAT and NET” value was roughly 5 fold. Besides, the “agonist efficacy at 5-HT2C, in words” value at 5-HT2C (h) (tested at 1, 3, 10, 100 μM) is given as “nearly full or full agonist; also recorded: full agonists”.
Regarding `NCCc1ccc2c(c1)OCS2` [II-14, 2-(benzo[d][1,3]oxathiol-6-yl)ethan-1-amine], on Dopamine transporter (Function DAT Estimated IC50, blocking reuptake of DA), the IC50 is roughly 10000 nM. Moreover, on Dopamine transporter (at 100 μM, read-out: Function DAT, inhibition of DAT), the inhibition at 100 µM amounted to 95%. For the same molecule, on Dopamine transporter (tested at 1, 10, 100 μM), the “Function DAT (blocking reuptake of DA), efficacy in words” value was “Near full efficacy,” and the “efficacy for blocking DA uptake through DAT, in words” value is recorded as “full efficacy”. For the same molecule, a half-maximal effect on 5-HT2A (h) (EC50) was put at 3000 nM. For the same molecule, on 5-HT2A (h) (at 100 μM, relative to 5-HT, read-out: Function 5-HT2A EMAX), the Emax at 100 µM amounted to 87.3%. On 5-HT2A (h) (tested at 1, 3, 10, 100 μM), the “Function 5-HT2A (IP-1, efficacy relative to 5-HT), agonist type” value is “Nearly full agonist -” and the “agonist efficacy at 5-HT2A, in words” value is given as “nearly full or full agonist; also recorded: full agonists”. This molecule came in with an EC50 on 5-HT2B (h) of less than 750 nM. In addition, on 5-HT2B (h) (at 10 μM, relative to 5-HT, read-out: Function 5-HT2B EMAX), the Emax at 10 µM was 100%. Further, on 5-HT2B (h) (tested at 1, 3, 10, 100 μM), the “Function 5-HT2B (Gq-IP1, efficacy relative to 5-HT), agonist type” value is recorded as “Full agonist -” and the “agonist efficacy at 5-HT2B, in words” value was “nearly full or full agonist; also recorded: full agonists”. At MAO-B, the half-life at 1 µM was less than 0.0833 h. Also, at Serotonin transporter, the IC50 is roughly 500 nM; the “selectivity for blocking 5-HT reuptake relative to NE and DA, in words” value is “selectivity (higher potency) for blocking 5-HT reuptake relative to NE and DA”; the “selectivity for inhibiting SERT relative to DAT and NET” value is given as roughly 5 fold. Also, the “Function SERT, inhibition of SERT” value at Serotonin transporter (from 3 to 100 μM) is on record as 98.5-107.9%,. On Serotonin transporter (tested at 1, 3, 10, 100 μM), the “Function SERT (blocking reuptake of 5-HT), efficacy in words” value is listed as “Full efficacy,” and the “efficacy for blocking 5-HT uptake through SERT, in words” value is “full efficacy”. The EC50 at 5-HT2C (h) is less than 750 nM. In addition, the Emax at 3 µM on 5-HT2C (h) (at 3 μM, relative to 5-HT, read-out: Function 5-HT2C EMAX) worked out at 107%. At 5-HT2C (h) (tested at 1, 3, 10, 100 μM), the “Function 5-HT2C (Gq-IP1, efficacy relative to 5-HT), agonist type” value is listed as “Full agonist -” and the “agonist efficacy at 5-HT2C, in words” value is “nearly full or full agonist; also recorded: full agonists”.
